The source made the active and inactive calls. The calls are words filed in the database; no cut-off is given here.
Tests used:
Cannabinoid receptor 1 [1] = molecular target: T1, Cannabinoid receptor 1 (Homo sapiens, UniProt P21554); experiment: Displacement of [3H]CP55940 from human CB1 receptor expressed in HEK293-EBNA cell membrane incubated for 90 mins by liquid scintillation counting method; format: cell membranes
Cannabinoid receptor 2 [2] = molecular target: T2, Cannabinoid receptor 2 (Homo sapiens, UniProt P34972); experiment: Displacement of [3H]CP55940 from human CB2 receptor expressed in HEK293-EBNA cell membrane at 40 uM incubated for 90 mins by liquid scintillation counting method relative to control; format: cell membranes
T2 sequence (P34972 whole entry): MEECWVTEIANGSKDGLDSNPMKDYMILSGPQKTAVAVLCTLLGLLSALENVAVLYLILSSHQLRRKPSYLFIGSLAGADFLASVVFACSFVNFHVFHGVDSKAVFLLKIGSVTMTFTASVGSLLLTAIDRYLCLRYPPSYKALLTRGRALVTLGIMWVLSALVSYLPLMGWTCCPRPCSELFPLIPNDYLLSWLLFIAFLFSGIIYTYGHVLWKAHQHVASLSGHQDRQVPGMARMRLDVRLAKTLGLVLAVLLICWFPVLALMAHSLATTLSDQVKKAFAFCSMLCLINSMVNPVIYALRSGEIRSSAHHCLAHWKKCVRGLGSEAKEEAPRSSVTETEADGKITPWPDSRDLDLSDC

[3] = Selectivity ratio of Ki for human CB1 receptor expressed in HEK293-EBNA cell membrane to Ki for human CB2 receptor expressed in HEK293-EBNA cell membrane; format: cell-based
Cannabinoid receptor 2 [4] = molecular target: T2, Cannabinoid receptor 2; experiment: Antagonist/inverse agonist activity at human CB2 receptors expressed in human Chem4 cell membrane incubated for 30 mins by [35S]GTPgammaS binding assay; format: functional, cell membranes
Cannabinoid receptor 2 [5] = molecular target: T2, Cannabinoid receptor 2; experiment: Displacement of [3H]CP55940 from human CB2 receptor expressed in HEK293-EBNA cell membrane incubated for 90 mins by liquid scintillation counting method; format: cell membranes
Cannabinoid receptor 1 [6] = molecular target: T1, Cannabinoid receptor 1; experiment: Displacement of [3H]CP55940 from human CB1 receptor expressed in HEK293-EBNA cell membrane at 40 uM incubated for 90 mins by liquid scintillation counting method relative to control; format: cell membranes
[7] = molecular target: Cannabinoid receptor 2 (Mus musculus) (UniProt P47936); experiment: Antagonist activity at CB2 receptor in mouse BV2 cells assessed as reversal of WIN55,212-2-induced reduction of LPS-induced PGE2 production at 10 fold Ki concentration incubated for 16 hrs by ELISA; format: cell-based; conditions: BV-2
Chain of Cannabinoid receptor 2 (Mus musculus) (P47936 whole entry): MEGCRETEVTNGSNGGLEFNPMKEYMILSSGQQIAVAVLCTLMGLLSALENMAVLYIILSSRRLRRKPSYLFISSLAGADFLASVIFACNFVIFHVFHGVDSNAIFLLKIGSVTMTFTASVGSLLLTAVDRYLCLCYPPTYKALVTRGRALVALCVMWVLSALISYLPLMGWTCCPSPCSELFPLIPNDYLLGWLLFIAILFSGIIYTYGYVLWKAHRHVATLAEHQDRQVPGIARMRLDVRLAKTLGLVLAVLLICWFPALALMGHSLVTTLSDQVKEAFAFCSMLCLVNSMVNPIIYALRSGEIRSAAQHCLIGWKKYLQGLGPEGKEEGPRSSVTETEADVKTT

[8] = molecular target: Cannabinoid receptor 2 (Mus musculus) (UniProt P47936); experiment: Antagonist/inverse agonist activity at CB2 receptor in mouse BV2 cells assessed as increase in LPS-induced PGE2 production at 10 fold Ki concentration incubated for 16 hrs by ELISA; format: cell-based; conditions: BV-2
[9] = molecular target: Cannabinoid receptor 2 (Mus musculus) (UniProt P47936); experiment: Antagonist/inverse agonist activity at CB2 receptor in mouse BV2 cells assessed as increase in LPS-induced PGE2 production at 10 fold Ki concentration incubated for 16 hrs by ELISA in presence of CB2 antagonist/inverse agonist SR144528; format: cell-based; conditions: BV-2

T1 sequence (P21554 whole entry): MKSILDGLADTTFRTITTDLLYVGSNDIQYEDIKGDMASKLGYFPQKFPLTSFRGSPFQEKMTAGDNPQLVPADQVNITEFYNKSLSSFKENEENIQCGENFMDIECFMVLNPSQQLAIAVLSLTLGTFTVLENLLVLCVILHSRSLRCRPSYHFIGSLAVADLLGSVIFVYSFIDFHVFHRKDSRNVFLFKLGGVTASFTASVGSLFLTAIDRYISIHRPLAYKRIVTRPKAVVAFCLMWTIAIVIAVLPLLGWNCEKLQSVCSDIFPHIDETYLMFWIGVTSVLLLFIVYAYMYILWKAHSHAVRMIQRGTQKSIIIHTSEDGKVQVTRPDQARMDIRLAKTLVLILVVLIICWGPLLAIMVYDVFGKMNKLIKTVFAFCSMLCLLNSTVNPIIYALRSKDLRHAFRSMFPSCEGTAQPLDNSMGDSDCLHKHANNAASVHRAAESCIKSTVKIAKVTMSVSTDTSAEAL

Row | Compound | Ki (Cannabinoid receptor 1 [1]) [nM] | Activity (Cannabinoid receptor 2 [2]) [%] | Ratio Ki [3] | IC50 (Cannabinoid receptor 2 [4]) [nM] | Ki (Cannabinoid receptor 2 [5]) [nM] | Activity (Cannabinoid receptor 1 [6]) [%] | Activity [7] | Activity [8] | Activity [9]
1 | O=C(NN1CCCCC1)c1nn(-c2ccc(Cl)cc2Cl)c2c1Cc1cc(C3CC3)ccc1-2 | 1850 | > 70 | 26.7 | 294 | 69.4 | > 70 | – | – | –
2 | CC1(C)C2CC[C@@](C)(C2)C1NC(=O)c1nn(-c2ccc(Cl)cc2Cl)c2c1ccc1cc(C3CC3)ccc12 (stereo partly drawn) | > 40000 | > 70 | – | – | > 40000 | > 70 | – | – | –
3 | CC1(C)C2CC[C@@](C)(C2)C1NC(=O)c1nn(-c2ccc(Cl)cc2Cl)c2c1Cc1cc(C3CC3)ccc1-2 (stereo partly drawn) | > 40000 | > 70 | > 6940 | 80.4 | 6 | > 70 | Active | Active | inactive
4 | O=C(NN1CCCC1)c1nn(-c2ccc(Cl)cc2Cl)c2c1ccc1cc(C3CC3)ccc12 | > 40000 | > 70 | – | – | > 40000 | > 70 | – | – | –
5 | O=C(c1nn(-c2ccc(Cl)cc2Cl)c2c1Cc1cc(C3CC3)ccc1-2)N1CCCCC1 | > 10000 | > 70 | > 24.2 | – | 414 | > 70 | – | – | –
6 | CC1(C)[C@@H]2CC[C@]1(C)[C@H](NC(=O)c1nn(-c3ccc(Cl)cc3Cl)c3c1Cc1cc(C4CC4)ccc1-3)C2 | > 40000 | > 70 | > 1060 | 26.9 | 38 | > 70 | Active | inactive | Active
7 | O=C(NN1CCCC1)c1nn(-c2ccc(Cl)cc2Cl)c2c1Cc1cc(C3CC3)ccc1-2 | 4210 | > 70 | 27.7 | – | 152 | > 70 | – | – | –
8 | O=C(NN1CCCCC1)c1nn(-c2ccc(Cl)cc2Cl)c2c1CCc1cc(C3CC3)ccc1-2 | > 40000 | > 70 | > 280 | – | 143 | > 70 | – | – | –
9 | O=C(NN1CCCC1)c1nn(-c2ccc(Cl)cc2Cl)c2c1Cc1cc(C3CCCCC3)ccc1-2 | > 10000 | > 70 | > 19.4 | – | 515 | > 70 | – | – | –
10 | O=C(NN1CCCCC1)c1nn(-c2ccc(Cl)cc2Cl)c2c1ccc1cc(C3CC3)ccc12 | > 40000 | > 70 | > 48.5 | – | 825 | > 70 | – | – | –
11 | O=C(NN1CCCCC1)c1nn(-c2ccc(Cl)cc2Cl)c2c1Cc1cc(C3CCCCC3)ccc1-2 | > 10000 | > 70 | > 19.6 | – | 509 | > 70 | – | – | –
12 | O=C(NC12CC3CC(CC(C3)C1)C2)c1nn(-c2ccc(Cl)cc2Cl)c2c1Cc1cc(C3CC3)ccc1-2 | > 10000 | > 70 | > 2230 | 50.7 | 4 | > 70 | Active | inactive | inactive
13 | O=C(NN1CCOCC1)c1nn(-c2ccc(Cl)cc2Cl)c2c1Cc1cc(C3CC3)ccc1-2 | 4030 | > 70 | 20.4 | – | 198 | > 70 | – | – | –
14 | CC1(C)C2CC[C@@](C)(C2)C1NC(=O)c1nn(-c2ccc(Cl)cc2Cl)c2c1CCc1cc(C3CC3)ccc1-2 (stereo partly drawn) | > 40000 | > 70 | > 7.25 | – | 5520 | > 70 | – | – | –
15 | CC1(C)C2CC[C@@](C)(C2)C1NC(=O)c1nn(-c2ccc(Cl)cc2Cl)c2c1Cc1cc(C3CCCCC3)ccc1-2 (stereo partly drawn) | > 10000 | > 70 | – | – | > 10000 | > 70 | – | – | –
16 | CC1(C)C2CCC(CNC(=O)c3nn(-c4ccc(Cl)cc4Cl)c4c3CCc3cc(C5CC5)ccc3-4)C1C2 (stereo not drawn) | > 10000 | > 70 | – | – | > 10000 | > 70 | – | – | –
17 | O=C(c1nn(-c2ccc(Cl)cc2Cl)c2c1ccc1cc(C3CC3)ccc12)N1CCCCC1 | > 40000 | > 70 | – | – | > 40000 | > 70 | – | – | –

Source: ChEMBL document CHEMBL3779789, “Tricyclic pyrazoles. Part 8. Synthesis, biological evaluation and modelling of tricyclic pyrazole carboxamides as potential CB2 receptor ligands with antagonist/inverse agonist properties” (Eur J Med Chem, 2016)
